Results taken from patent US12479821B2 (MBD CO., LTD., priority 2019, dated 2025).

Each compound was assayed against T1, CYP4A (Homo sapiens, UniProt Q02928) (assay: CYP4A enzyme assay (Luciferin-ME luminescence, CYP4A bactosome)). Conditions: compound concentration 5 μM; 25%-50%; read-out: % Inhibition 25%-50%.
T1 construct: host or cells: bactosome, i.e. bacterial membrane preparation (own knowledge of the term)
T1 sequence (Q02928 5-519): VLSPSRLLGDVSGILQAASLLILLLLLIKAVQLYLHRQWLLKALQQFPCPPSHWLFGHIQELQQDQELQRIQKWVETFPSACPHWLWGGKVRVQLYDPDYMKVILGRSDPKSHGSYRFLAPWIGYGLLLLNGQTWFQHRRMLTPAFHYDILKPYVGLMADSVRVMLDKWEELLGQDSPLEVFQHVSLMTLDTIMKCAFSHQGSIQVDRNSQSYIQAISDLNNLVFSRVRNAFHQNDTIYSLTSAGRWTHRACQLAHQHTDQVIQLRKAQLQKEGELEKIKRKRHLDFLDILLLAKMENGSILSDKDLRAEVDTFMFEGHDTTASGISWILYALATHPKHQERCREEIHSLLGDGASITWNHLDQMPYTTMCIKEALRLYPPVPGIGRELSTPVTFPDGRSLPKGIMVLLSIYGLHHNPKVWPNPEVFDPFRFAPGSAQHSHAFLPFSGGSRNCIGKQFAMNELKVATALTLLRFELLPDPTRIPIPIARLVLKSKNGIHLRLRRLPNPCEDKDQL
Format: biochemical
Procedure: A commercially available reagent was used for the reagent used in the experiment, and it was manufactured and used if necessary. The device used for activity measurement was EnVision of PerkinElmer or SpectraMax of MOLECULAR DEVICES.
First, CYP4A bactosome and synthetic compound (5 μM) were mixed in assay buffer (100 mM KPO4, 0.1% BSA, 1 mM DTT) in a 384-well plate (white opaque ploystyrene nontreated flat-bottom well), and then reacted at room temperature for 15 minutes. After adding 5 mM Luciferin-ME and NADPH Regeneration system (10× sol.A, 20× sol.B in assay buffer, Cat. Number: V865B, Promega), leave it at room temperature for 30 minutes to allow the CYP4A reaction to occur sufficiently, by adding the Luciferin Detection reagent, the CYP4A reaction was finished, luminescence reaction was induced, and the reaction was carried out at room temperature for 15 minutes. The degree of inhibition of CYP4A activity was measured by comparing the luminescence values from each well with a microplate reader.

inhibition at 5 µM	SMILES
25 to 50%	Cc1ccc(S(=O)(=O)N2CCCC(C(=O)N3CCN(c4cc(C(F)(F)F)nc5ccccc45)CC3)C2)cc1 (stereo not shown) [Formula 65, (1-tosylpiperidin-3-yl) (4-(2-(trifluoromethyl)quinolin-4-yl)piperazin-1-yl) methanone]
25 to 50%	O=C(C1CCCN(S(=O)(=O)c2ccc(F)cc2)C1)N1CCN(c2cc(C(F)(F)F)nc3ccccc23)CC1 (stereo not shown) [Formula 66, (1-(4-fluorophenylsulfonyl)piperidin-3-yl) (4-(2-(trifluoromethyl)quinolin-4-yl)piperazin-1-yl) methanone]
25 to 50%	O=C(C1CCCN(S(=O)(=O)c2ccc(O)cc2)C1)N1CCN(c2cc(C(F)(F)F)nc3ccccc23)CC1 (stereo not shown) [Formula 68, (1-(4-hydroxyphenylsulfonyl)piperidin-3-yl) (4-(2-(trifluoromethyl)quinolin-4-yl)piperazin-1-yl) methanone]
25 to 50%	O=C([C@H]1CCCN(S(=O)(=O)c2ccc(O)cc2)C1)N1CCN(c2cc(C(F)(F)F)nc3ccccc23)CC1 [Formula 70, (S)-(1-(4-hydroxyphenylsulfonyl)piperidin-3-yl) (4-(2-(trifluoromethyl)quinolin-4-yl)piperazin-1-yl) methanone]
25 to 50%	O=C(C1CCCN(S(=O)(=O)c2ccc(C(F)(F)F)cc2)C1)N1CCN(c2cc(C(F)(F)F)nc3ccccc23)CC1 (stereo not shown) [Formula 71, (1-(4-(trifluoromethyl)phenylsulfonyl)piperidin-3-yl) (4-(2-(trifluoromethyl)quinolin-4-yl)piperazin-1-yl) methanone]
25 to 50%	O=C(C1CCCN(S(=O)(=O)c2cccc(F)c2)C1)N1CCN(c2cc(C(F)(F)F)nc3ccccc23)CC1 (stereo not shown) [Formula 72, (1-(3-fluorophenylsulfonyl)piperidin-3-yl) (4-(2-(trifluoromethyl)quinolin-4-yl)piperazin-1-yl) methanone]
25 to 50%	O=C(C1CCCN(S(=O)(=O)c2c(F)c(F)c(F)c(F)c2F)C1)N1CCN(c2cc(C(F)(F)F)nc3ccccc23)CC1 (stereo not shown) [Formula 73, (1-(perfluorophenylsulfonyl)piperidin-3-yl) (4-(2-(trifluoromethyl)quinolin-4-yl)piperazin-1-yl) methanon]
0%	COc1ccc2c(N3CCN(C(=O)C4CCCN(S(=O)(=O)c5ccc(C)cc5)C4)CC3)ccnc2c1 (stereo not shown) [Formula 88, (4-(7-methoxyquinolin-4-yl)piperazin-1-yl) (1-tosylpiperidin-3-yl) methanone]

Same assay, conditions: compound concentration 5 μM; 75% or more; read-out: % Inhibition 75% or more

SMILES	inhibition at 5 µM
O=C(C1CCCN(S(=O)(=O)c2cccc(Br)c2)C1)N1CCN(c2ccnc3cc(F)ccc23)CC1 (stereo not shown) [Formula 62, (1-(3-bromophenylsulfonyl)piperidin-3-yl) (4-(7-fluoroquinolin-4-yl)piperazin-1-yl) methanone]	≥ 75%
O=C(C1CCCN(S(=O)(=O)c2ccc(F)cc2)C1)N1CCN(c2ccnc3ccccc23)CC1 (stereo not shown) [Formula 75, (1-(4-fluorophenylsulfonyl)piperidin-3-yl) (4-(quinolin-4-yl)piperazin-1-yl) methanone]	≥ 75%
O=C(C1CCCN(S(=O)(=O)c2ccc(O)cc2)C1)N1CCN(c2ccnc3ccccc23)CC1 (stereo not shown) [Formula 76, (1-((4-hydroxyphenyl)sulfonyl)piperidin-3-yl) (4-(quinolin-4-yl)piperazin-1-yl) methanone]	≥ 75%
CN(C)c1ccc(S(=O)(=O)N2CCCC(C(=O)N3CCN(c4ccnc5ccccc45)CC3)C2)cc1 (stereo not shown) [Formula 77, (1-(4-(dimethylamino)phenylsulfonyl)piperidin-3-yl) (4-(quinolin-4-yl)piperazin-1-yl) methanone]	≥ 75%
CC(=O)Nc1ccc(S(=O)(=O)N2CCCC(C(=O)N3CCN(c4ccnc5ccccc45)CC3)C2)cc1 (stereo not shown) [Formula 78, N-(4-((3-(4-(quinolin-4-yl)piperazine-1-carbonyl)piperidin-1-yl)sulfonyl)phenyl) acetamide]	≥ 75%

Now from value to compound:

inhibition at 5 µM	SMILES
≥ 75%	CN(C)c1ccc(S(=O)(=O)N2CCC[C@@H](C(=O)N3CCN(c4ccnc5ccccc45)CC3)C2)cc1 [Formula 79, (R)-(1-(4-(dimethylamino)phenylsulfonyl)piperidin-3-yl) (4-(quinolin-4-yl)piperazin-1-yl)methanone]
≥ 75%	CN(C)c1ccc(S(=O)(=O)N2CCC[C@H](C(=O)N3CCN(c4ccnc5ccccc45)CC3)C2)cc1 [Formula 80, (S)-(1-(4-(dimethylamino)phenylsulfonyl)piperidin-3-yl) (4-(quinolin-4-yl)piperazin-1-yl)methanone]
≥ 75%	O=C(C1CCCN(S(=O)(=O)c2ccc([N+](=O)[O-])cc2)C1)N1CCN(c2ccnc3ccccc23)CC1 (stereo not shown) [Formula 81, (1-(4-nitrophenylsulfonyl)piperidin-3-yl) (4-(quinolin-4-yl)piperazin-1-yl) methanone]
≥ 75%	O=C(C1CCCN(S(=O)(=O)c2cccc([N+](=O)[O-])c2)C1)N1CCN(c2ccnc3ccccc23)CC1 (stereo not shown) [Formula 82, (1-(3-nitrophenylsulfonyl)piperidin-3-yl) (4-(quinolin-4-yl)piperazin-1-yl) methanone]
≥ 75%	CCN(CC)c1ccc(S(=O)(=O)N2CCCC(C(=O)N3CCN(c4ccnc5ccccc45)CC3)C2)cc1 (stereo not shown) [Formula 83, (1-(4-(diethylamino)phenylsulfonyl)piperidin-3-yl) (4-(quinolin-4-yl)piperazin-1-yl)methanone]
≥ 75%	O=C(C1CCCN(S(=O)(=O)c2ccc(-c3ccccc3)cc2)C1)N1CCN(c2ccnc3ccccc23)CC1 (stereo not shown) [Formula 84, (4-(quinolin-4-yl)piperazin-1-yl) (1-(4-phenylbenzenesulfonyl)piperidin-3-yl) methanone]
≥ 75%	COc1cccc(S(=O)(=O)N2CCCC(C(=O)N3CCN(c4ccnc5ccccc45)CC3)C2)c1 (stereo not shown) [Formula 86, (1-(3-methoxyphenylsulfonyl)piperidin-3-yl) (4-(quinolin-4-yl)piperazin-1-yl) methanone]

Same assay, conditions: compound concentration 5 μM; '50%-75%'; read-out: % Inhibition 50%-75%

SMILES	inhibition at 5 µM
CC(=O)Nc1ccc(S(=O)(=O)N2CCCC(C(=O)N3CCN(c4cc(C(F)(F)F)nc5ccccc45)CC3)C2)cc1 (stereo not shown) [Formula 63, N-(4-(3-(1-(2-(trifluoromethyl)quinolin-4-yl)piperazine-4-carbonyl)piperidin-1-ylsulfonyl)phenyl) acetamide]	50 to 75%
CN(C)c1ccc(S(=O)(=O)N2CCCC(C(=O)N3CCN(c4cc(C(F)(F)F)nc5ccccc45)CC3)C2)cc1 (stereo not shown) [Formula 67, (1-(4-(dimethylamino)phenylsulfonyl)piperidin-3-yl) (4-(2-(trifluoromethyl)quinolin-4-yl)piperazin-1-yl) methanone]	50 to 75%
O=C([C@@H]1CCCN(S(=O)(=O)c2ccc(O)cc2)C1)N1CCN(c2cc(C(F)(F)F)nc3ccccc23)CC1 [Formula 69, (R)-(1-(4-hydroxyphenylsulfonyl)piperidin-3-yl) (4-(2-(trifluoromethyl)quinolin-4-yl)piperazin-1-yl) methanone]	50 to 75%
O=C(C1CCCN(S(=O)(=O)c2ccccc2)C1)N1CCN(c2ccnc3ccccc23)CC1 (stereo not shown) [Formula 74, (1-(phenylsulfonyl)piperidin-3-yl) (4-(quinolin-4-yl)piperazin-1-yl) methanone]	50 to 75%

Second part, the compound after the results:

inhibition at 5 µM	SMILES
50 to 75%	O=C(C1CCCN(S(=O)(=O)c2ccc(Br)cc2)C1)N1CCN(c2ccnc3ccccc23)CC1 (stereo not shown) [Formula 85, (1-(4-bromophenylsulfonyl)piperidin-3-yl) (4-(quinolin-4-yl)piperazin-1-yl) methanone]
0%	COc1ccc2c(N3CCN(C(=O)C4CCCN(S(=O)(=O)c5ccc(NC(C)=O)cc5)C4)CC3)ccnc2c1 (stereo not shown) [Formula 87, N-(4-(3-(1-(7-methoxyquinolin-4-yl)piperazine-4-carbonyl)piperidin-1-ylsulfonyl)phenyl) acetamide]
50 to 75%	COc1ccc2c(N3CCN(C(=O)C4CCCN(S(=O)(=O)c5ccc(F)cc5)C4)CC3)ccnc2c1 (stereo not shown) [Formula 89, (1-(4-fluorophenylsulfonyl)piperidin-3-yl) (4-(7-methoxyquinolin-4-yl)piperazin-1-yl) methanone]

Same assay, conditions: compound concentration 5 μM; mark in column '25% or less'; read-out: % Inhibition 25% or less

inhibition at 5 µM	SMILES
≤ 25%	O=C(C1CCCN(S(=O)(=O)c2ccccc2)C1)N1CCN(c2cc(C(F)(F)F)nc3ccccc23)CC1 (stereo not shown) [Formula 64, (1-(phenylsulfonyl)piperidin-3-yl) (4-(2-(trifluoromethyl)quinolin-4-yl)piperazin-1-yl)methanone]
